Measured values from PubChem BioAssay (NCI).
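In this assay, cells in 96-well plates receive the compound at five concentrations for 48 hours. Endpoints are linearly interpolated between the surrounding concentrations. GI50 is the concentration that inhibits growth by half. At the TGI there is no net growth.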

What was measured:
Experiment in all cases: NCI tumour cell line growth inhibition, 48 h
786-0 renal = tested on: 786-0 renal
UACC-62 melanoma = tested on: UACC-62 melanoma
ACHN renal = tested on: ACHN renal
OVCAR-5 ovarian = tested on: OVCAR-5 ovarian
OVCAR-3 ovarian = tested on: OVCAR-3 ovarian
SK-MEL-2 melanoma = tested on: SK-MEL-2 melanoma
OVCAR-4 ovarian = tested on: OVCAR-4 ovarian
MDA-MB-231 breast = tested on: MDA-MB-231 breast
PC-3 prostate = tested on: PC-3 prostate
HS 578T breast = tested on: HS 578T breast

Row | Compound | TGI (786-0 renal) [µM] | TGI (UACC-62 melanoma) [µM] | TGI (ACHN renal) [µM] | TGI (OVCAR-5 ovarian) [µM] | TGI (OVCAR-3 ovarian) [µM] | TGI (SK-MEL-2 melanoma) [µM] | TGI (OVCAR-4 ovarian) [µM] | GI50 (786-0 renal) [µM] | GI50 (MDA-MB-231 breast) [nM] | TGI (MDA-MB-231 breast) [µM] | GI50 (PC-3 prostate) [nM] | TGI (PC-3 prostate) [µM] | GI50 (UACC-62 melanoma) [µM] | GI50 (ACHN renal) [µM] | GI50 (OVCAR-5 ovarian) [µM] | GI50 (OVCAR-3 ovarian) [µM] | GI50 (SK-MEL-2 melanoma) [nM] | GI50 (OVCAR-4 ovarian) [µM] | TGI (HS 578T breast) [µM] | GI50 (HS 578T breast) [µM]
1 | Nc1nc(N)c(-c2ccccc2)c(C(=O)Nc2nccs2)n1 | > 100 | > 100 | > 100 | > 100 | > 100 | > 100 | > 100 |  |  |  |  |  |  |  |  |  |  |  |  | 
2 | O=C(O)C12C3C4C1C1C2C3C41I (stereo not drawn) | > 100 | > 100 | > 100 | > 100 | > 100 | > 100 | > 100 |  |  |  |  |  |  |  |  |  |  |  |  | 
3 | Oc1ccc(CCNc2nc3ccccc3c3[nH]c4ccccc4c23)cc1 | 2.69 | 3.04 | 2.52 | 7.18 | 3.24 | 3.36 | 3.15 | 1.29 | 1360 | 2.97 | 1630 | 3.31 | 1.66 | 1.27 | 2.89 | 1.6 | 1730 | 1.66 |  | 
4 | CCCNc1ncnc2c1cnn2C | > 100 | > 100 | > 100 | > 100 | > 100 | > 100 | > 100 |  |  |  |  |  |  |  |  |  |  |  |  | 
5 | COC(=O)C1=C(C)N(NC(=O)Nc2ccccc2)C2(N)N(NC(=O)Nc3ccccc3)C(C)=C(C(=O)OC)C12C(=O)OC (stereo not drawn) | > 100 | > 100 | > 100 | > 100 | > 100 | > 100 | > 100 |  |  |  |  |  |  |  |  |  |  |  |  | 
6 | CCOC(=O)/C(=C/c1ccc[nH]1)P(=O)(OCC)OCC | > 100 | > 100 | > 100 | > 100 | > 100 | > 100 | > 100 |  |  |  |  |  |  |  |  |  |  |  |  | 
7 | O=c1cccccc1[O-].O=c1cccccc1[O-].O=c1cccccc1[O-].[Dy+3] | > 100 | > 100 | > 100 | > 100 | 41.1 | > 100 | > 100 |  |  |  |  |  |  |  |  |  |  |  |  | 
8 | CC(C)c1nc(Cl)c(Cl)c(Cl)n1 | 16.1 | 23.1 | 2.51 | 17.7 | 8.2 |  | 39.1 |  |  | 23.2 |  | 17.7 |  |  |  |  |  |  | 14 | 
9 | CCCCCCCCCCCCCCCC(=O)NCC(OCC)OCC | > 100 | > 100 | > 100 | > 100 | > 100 | > 100 | > 100 |  |  |  |  |  |  |  |  |  |  |  |  | 
10 | CN1C/C(=C\c2ccco2)c2nc(N)nc(-c3ccco3)c2C1 | > 100 | > 100 | > 100 | > 100 | > 100 | > 100 |  |  |  |  |  |  |  |  |  |  |  |  |  | 
11 | CC1=C2[C@@H](c3ccccc3)C3C=CC2(C=C3C(F)(F)F)N(C(=O)NC2CCCCC2)C1=O (stereo partly drawn) | > 100 | > 100 | > 100 | > 100 | > 100 |  | > 100 |  |  |  |  |  |  |  |  |  |  |  |  | 
12 | Cc1cc2c(=O)cc(-c3ccncc3)oc2c(C(=O)O)c1C | > 100 | > 100 | > 100 | > 100 | > 100 | > 100 |  |  |  |  |  |  |  |  |  |  |  |  |  | 
13 | Cc1nc(-c2cccnc2)sc1C(=O)/C=C/c1ccc(Cl)cc1Cl | > 100 | > 100 | > 100 | > 100 | > 100 | > 100 |  |  |  |  |  |  |  |  |  |  |  |  |  | 
14 | Cc1c(-c2ccc(N3CCc4cccc(C(=O)Nc5nc6ccccc6s5)c4C3)nc2C(=O)O)cnn1CC12CC3CC(CC(C3)C1)C2 | 12.4 | 15.4 | 18.5 | 32.4 | 20.9 | 20.5 | 33.2 | 3.65 |  |  | 1420 | 6.15 | 3.65 | 4.83 | 11.4 | 6.19 | 3100 | 6.72 | 38.4 | 3.77
15 | O=C(/C=C/c1ccc(OCC(=O)N2CCN(c3ccccc3)CC2)cc1)c1ccccc1 | > 57.9 | > 59.7 | > 89.6 | > 90 | > 100 | > 60.4 | > 100 |  |  |  |  |  |  |  |  |  |  |  |  | 
16 | COc1ccc(-c2ccc(/C=N/n3c(COc4ccc(Cl)c(C)c4)nn(CN4CCOCC4)c3=S)o2)c([N+](=O)[O-])c1 | > 100 | > 100 | > 100 | > 100 | 44.8 |  | 76.7 | 32.5 |  |  | 17700 | 51.1 | 30.8 | 39.1 | 33.2 | 17.3 |  | 31.9 | > 100 | 37.8
17 | COC(=O)CCSC(=O)Nc1ccccc1Cl | > 100 | > 100 | > 100 | > 100 | > 100 | > 100 | > 100 |  |  |  |  |  |  |  |  |  |  |  |  | 
